ChEMBL document CHEMBL4251650, “Design and synthesis of 2-(4,5,6,7-tetrahydrothienopyridin-2-yl)-benzoimidazole carboxamides as novel orally efficacious Poly(ADP-ribose)polymerase (PARP) inhibitors” (Eur J Med Chem, 2018)

Key:
[1] = Permeability across apical to basolateral side in human Caco2 cells; format: ADME, cell-based; conditions: Caco-2, read-out: permeability
[2] = Solubility of the compound in pH 7 solution; format: physicochemical
[3] = Solubility of the compound in pH 6.8 solution; format: physicochemical
[4] = Solubility of the compound in pH 7.4 solution; format: physicochemical
[5] = Intrinsic clearance in mouse liver microsomes; format: ADME, microsome; conditions: read-out: CLH
[6] = Intrinsic clearance in rat liver microsomes; format: ADME, microsome; conditions: read-out: CLH
[7] = Intrinsic clearance in human liver microsomes; format: ADME, microsome; conditions: read-out: CLH
[8] = Clearance in Sprague-Dawley rat at 5 mg/kg, iv administered as single dose by LC-MS/MS analysis; format: ADME, organism-based; conditions: in vivo
[9] = Half life in Sprague-Dawley rat at 5 mg/kg, iv administered as single dose by LC-MS/MS analysis; format: ADME, organism-based; conditions: in vivo
[10] = Volume of distribution at steady state in Sprague-Dawley rat at 5 mg/kg, iv administered as single dose by LC-MS/MS analysis; format: ADME, organism-based; conditions: in vivo, read-out: Vdss
[11] = AUC (0 to infinity) in Sprague-Dawley rat at 10 mg/kg, po administered as single dose by LC-MS/MS analysis; format: ADME, organism-based; parameters: dose 10 mg/kg, time infinity, route oral; conditions: in vivo
[12] = Cmax in Sprague-Dawley rat at 10 mg/kg, po administered as single dose by LC-MS/MS analysis; format: ADME, organism-based; parameters: dose 10 mg/kg, route oral; conditions: in vivo
[13] = Tmax in Sprague-Dawley rat at 10 mg/kg, po administered as single dose by LC-MS/MS analysis; format: ADME, organism-based; conditions: in vivo
[14] = Oral bioavailability in Sprague-Dawley rat at 10 mg/kg administered as single dose by LC-MS/MS analysis; format: ADME, organism-based; conditions: in vivo

Row | Papp A→B [1] [×10⁻⁶ cm/s] | solubility [2] [µM] | solubility [3] [µM] | solubility [4] [µM] | microsomal CLint [5] [µL/min/mg] | microsomal CLint [6] [µL/min/mg] | microsomal CLint [7] [µL/min/mg] | clearance [8] [mL/min/kg] | half-life [9] [h] | Vd [10] [L/kg] | AUC(0-inf) [11] [ng·h/mL] | Cmax [12] [ng/mL] | Tmax [13] [h] | bioavailability [14] [%] | SMILES
1 | 2.65 | > 50 | > 50 | > 50 | 75 | 196 | 28 | – | – | – | – | – | – | – | Cn1c(-c2cc3c(s2)CNCC3)nc2c(C(N)=O)cc(F)cc21
2 | 0.2 | > 50 | > 50 | > 50 | 123 | 340 | 23 | – | – | – | – | – | – | – | NC(=O)c1cc(F)cc2[nH]c(-c3cc4c(s3)CNCC4)nc12
3 | – | – | – | – | – | – | – | 194 | 0.89 | 13.2 | 245 | 61.2 | 2.25 | 26 | Cl.Cn1c(-c2cc3c(s2)CNCC3)nc2c(C(N)=O)cc(F)cc21
